Source: patent US20260125371A1, “METHOD FOR INHIBITING CLOSTRIDIOIDES DIFFICILE SPORE GERMINATION” (UNIVERSITY OF NOTRE DAME DU LAC, priority 2022, published 2026)
≈ marks a conversion by molar mass, not a printed value. Where “and” joins values, the source holds several entries; their conditions need not be identical. Identical values can stand only once. Like-named read-outs stand apart in the source and are kept apart here.

Experiments:
[1] = test system: C. difficile strain ATCC43255 spores; experiment: Spore germination inhibition assay; format: cell-based, Clostridioides difficile; settings: compound 45 μM, germinant 6 mM taurocholate and 12 mM glycine, OD600 over 60 min, duplicate; for inhibition at 45 µM: Clostridioides difficile, 1 h
[2] = test system: C. difficile ATCC 43255; experiment: Determination of minimal-inhibitory concentrations (microdilution), C. difficile ATCC 43255; format: cell-based, Clostridioides difficile; settings: for MIC: Clostridioides difficile
[3] = test system: S. aureus; experiment: MIC against S. aureus strains; format: cell-based; settings: S. aureus ATCC 29213, 24 h; for MIC: Staphylococcus aureus, ATCC29213, 24 h, read-out: MIC (μg/mL) 24 h
[4] = C. difficile ATCC 43255, 48-h incubation
[5] = ATCC43255, 24 h, C. difficile ATCC 43255, 24 h, read-out: MIC (μg/mL) 24 h
[6] = ATCC43255, 48 h, C. difficile ATCC 43255, 48-h incubation, read-out: MIC (μg/mL) 48 h

SMILES | MIC (μg/mL) 24 h [3] | MIC (μg/mL) 48 h [2, 4] | MIC (μg/mL) 24 h ([2]; C. difficile ATCC 43255, 24 h) | also measured
NCCCCc1nc(-c2ccc(Oc3ccc(C(F)(F)F)cc3)cc2)no1 [DR-06-025] |  |  |  | inhibition at 45 µM [1]: 44 ± 2%; MIC ([2]; ATCC43255, C. difficile ATCC43255, read-out: ATCC43255 MIC): > 128 µg/mL
C#Cc1ccc(Oc2cnc(-c3noc(-c4ccc(CN)cc4)n3)cc2C2(C(F)(F)F)N=N2)cc1 [YQ-4-169] |  |  |  | % Spore Germination Inhibition at 45 μM [1]: 63 ± 3%; ATCC43255 MIC ([2]; C. difficile ATCC43255): 8 µg/mL
FC(F)(F)c1ccc(Oc2ccc(-c3noc(-c4n[nH]cc4I)n3)cc2)cc1 [Compound 28] | 2 µg/mL (≈ 4.01 µM) | 128 µg/mL (≈ 257 µM) | 128 µg/mL (≈ 257 µM) | 
O=[N+]([O-])c1ccc(-c2nc(-c3ccc(Oc4ccc(C(F)(F)F)cc4)cc3)no2)cc1 [Compound 19] | ≥128 µg/mL | >128 µg/mL | >128 µg/mL | 
FC(F)(F)c1ccc(Oc2ccc(-c3noc(-c4n[nH]c5ccccc45)n3)cc2)cc1 [Compound 45] | >128 µg/mL | >128 µg/mL | >128 µg/mL | 
c1cc2cc(-c3nc(-c4ccc5occc5c4)no3)ccc2[nH]1 [Compound 120, 3-(Benzofuran-5-yl)-5-(1H-indol-5-yl)-1,2,4-oxadiazole] |  |  |  | MIC [3]: 64 µg/mL (≈ 212 µM); MIC [2, 5]: > 128 µg/mL; MIC [2, 6]: > 128 µg/mL
COc1cc(-c2nc(-c3ccc(Oc4ccc(C(F)(F)F)cc4)cc3)no2)ccc1O [Compound 13] | >128 µg/mL | 16 µg/mL (≈ 37.4 µM) | 16 µg/mL (≈ 37.4 µM) | 
OCC#Cc1c[nH]nc1-c1nc(-c2ccc(Oc3ccc(C(F)(F)F)cc3)cc2)no1 [Compound 29] | 4 µg/mL (≈ 9.38 µM) | >128 µg/mL | >128 µg/mL | 
CS(=O)(=O)Nc1ccc(-c2nc(-c3ccc(OC4CCCC4)cc3)no2)cc1 [Compound 52, N-(4-(3-(4-(Cyclopentyloxy)phenyl)-1,2,4-oxadiazol-5-yl)phenyl) methanesulfonamide] |  | >128 µg/mL |  | MIC [3]: > 128 µg/mL; MIC [2, 5]: > 128 µg/mL
Oc1ccc(-c2nc(-c3ccc(Oc4ccc(C(F)(F)F)cc4)cc3)no2)cc1O [Compound 12] | 2 µg/mL (≈ 4.83 µM) | 128 µg/mL and >128 µg/mL | >128 µg/mL | 
COc1ccc(-c2nc(-c3ccc(Oc4ccc(C(F)(F)F)cc4)cc3)no2)cc1[N+](=O)[O-] [Compound 22] | >128 µg/mL | >128 µg/mL | >128 µg/mL | 
O=C(Nc1c[nH]nc1-c1nc(-c2ccc(Oc3ccc(C(F)(F)F)cc3)cc2)no1)c1ccccn1 [Compound 43] | >128 µg/mL | >128 µg/mL | >128 µg/mL | 
O=[N+]([O-])c1c[nH]c(-c2nc(-c3ccc(Oc4ccc(C(F)(F)F)cc4)cc3)no2)c1 [Compound 47] | 8 µg/mL (≈ 19.2 µM) | 8 µg/mL (≈ 19.2 µM) | 8 µg/mL (≈ 19.2 µM) | 
CCCCOc1ccc(-c2noc(-c3ccc(O)cc3)n2)cc1 [Compound 90, 4-(3-(4-Butoxyphenyl)-1,2,4-oxadiazol-5-yl)phenol] |  |  |  | MIC [3]: > 128 µg/mL; MIC [2, 5]: > 128 µg/mL; MIC [2, 6]: > 128 µg/mL
O=c1ccc(-c2nc(-c3ccc(Oc4ccc(C(F)(F)F)cc4)cc3)no2)c[nH]1 [Compound 14] | >128 µg/mL | >128 µg/mL | >128 µg/mL | 
NCc1ccc(-c2nc(-c3ccc(OC4CCCC4)cc3)no2)cc1 [Compound 53, (4-(3-(4-(Cyclopentyloxy)phenyl)-1,2,4-oxadiazol-5-yl)phenyl) methanamine] |  |  |  | MIC [3]: 2 µg/mL (≈ 5.96 µM); MIC [2, 5]: 4 µg/mL (≈ 11.9 µM); MIC [2, 6]: 8 µg/mL (≈ 23.9 µM)
O=C1C[C@H](c2nc(-c3ccc(Oc4ccc(C(F)(F)F)cc4)cc3)no2)CN1 [Compound 31] | >128 µg/mL | >128 µg/mL | >128 µg/mL | 
FC(F)(F)c1ccc(Oc2ccc(-c3noc(-c4c[nH]cn4)n3)cc2)cc1 [Compound 34] | 2 µg/mL (≈ 5.37 µM) | 8 µg/mL (≈ 21.5 µM) | 8 µg/mL (≈ 21.5 µM) | 

SMILES | MIC (μg/mL) 24 h [3] | MIC (μg/mL) 48 h [2, 4] | MIC (μg/mL) 24 h ([2]; C. difficile ATCC 43255, 24 h) | also measured
Nc1ccc(-c2nc(-c3ccc(Oc4ccc(C(F)(F)F)cc4)cc3)no2)cc1F [Compound 20] | 2 µg/mL (≈ 4.82 µM) | >128 µg/mL | >128 µg/mL | 
FC(F)(F)c1ccc(Oc2ccc(-c3noc(-c4n[nH]cc4NC4CCCC4)n3)cc2)cc1 [Compound 38] | >128 µg/mL | >128 µg/mL | >128 µg/mL | 
Cl.NCCCCc1nc(-c2ccc(OC3CCCC3)cc2)no1 [Compound 67, 4-(3-(4-(Cyclopentyloxy)phenyl)-1,2,4-oxadiazol-5-yl)butan-1-amine hydrochloride salt] |  |  |  | MIC [3]: > 128 µg/mL; MIC [2, 5]: 128 µg/mL; MIC [2, 6]: 128 µg/mL
CC(C)(C)OC(=O)N1CCC(Nc2c[nH]nc2-c2nc(-c3ccc(Oc4ccc(C(F)(F)F)cc4)cc3)no2)CC1 [Compound 42] | >128 µg/mL | >128 µg/mL | >128 µg/mL | 
Oc1ccc(-c2cc(-c3ccc(Oc4ccccc4)cc3)no2)cc1 [Compound 135, 4-(3-(4-Phenoxyphenyl)isoxazol-5-yl)phenol] |  | >128 µg/mL |  | MIC [3]: > 128 µg/mL; MIC [2, 5]: > 128 µg/mL
O=C(O)c1ccc(-c2nc(-c3ccc(OC4CCCC4)cc3)no2)cc1 [Compound 49, 4-(3-(4-(Cyclopentyloxy)phenyl)-1,2,4-oxadiazol-5-yl)benzoic acid] |  | >128 µg/mL |  | MIC [3]: > 128 µg/mL; MIC [2, 5]: > 128 µg/mL
O=C(Nc1c[nH]nc1-c1nc(-c2ccc(Oc3ccc(C(F)(F)F)cc3)cc2)no1)c1ccccc1 [Compound 44] | >128 µg/mL | >128 µg/mL | >128 µg/mL | 
CCCCNc1c[nH]nc1-c1nc(-c2ccc(Oc3ccc(C(F)(F)F)cc3)cc2)no1 [Compound 40] | >128 µg/mL | >128 µg/mL | >128 µg/mL | 
FC(F)(F)c1ccc(Oc2ccc(-c3noc(-c4n[nH]cc4NC4CCCCC4)n3)cc2)cc1 [Compound 39] | >128 µg/mL | >128 µg/mL | >128 µg/mL | 
CCC(C)Nc1c[nH]nc1-c1nc(-c2ccc(Oc3ccc(C(F)(F)F)cc3)cc2)no1 (centres unmarked) [Compound 41] | >128 µg/mL | >128 µg/mL | >128 µg/mL | 
COc1ccc2oc3ccc(-c4noc(-c5n[nH]cc5[N+](=O)[O-])n4)cc3c2c1 [Compound 119, 3-(8-Methoxydibenzo[b,d]furan-2-yl)-5-(4-nitro-1H-pyrazol-3-yl)-1,2,4-oxadiazole] |  |  |  | MIC [3]: 32 µg/mL (≈ 84.8 µM); MIC [2, 5]: 2 µg/mL (≈ 5.3 µM); MIC [2, 6]: 64 µg/mL (≈ 170 µM)
FC(F)(F)c1ccc(Oc2ccc(-c3noc(-c4n[nH]cc4Br)n3)cc2)cc1 [Compound 27] | 1 µg/mL (≈ 2.22 µM) | >128 µg/mL | >128 µg/mL | 
FC(F)(F)c1ccc(Oc2ccc(-c3noc(-c4ccc(Br)cc4)n3)cc2)cc1 [Compound 18] | >128 µg/mL | >128 µg/mL | >128 µg/mL | 
Oc1ccc(-c2nc(-c3ccc(OC4CC4)cc3)no2)cc1 [Compound 92, 4-(3-(4-Cyclopropoxyphenyl)-1,2,4-oxadiazol-5-yl)phenol] |  |  |  | MIC [3]: > 128 µg/mL; MIC [2, 5]: > 128 µg/mL; MIC [2, 6]: > 128 µg/mL
FC(F)(F)c1ccc(Oc2ccc(-c3noc(-c4n[nH]cc4Cl)n3)cc2)cc1 [Compound 26] | 1 µg/mL (≈ 2.46 µM) | >128 µg/mL | >128 µg/mL | 
NCc1ccc(-c2nc(-c3ccc(Oc4ccc(C(F)(F)F)cc4)cn3)no2)cc1 [YQ-4-107] |  |  |  | inhibition at 45 µM [1]: 24 ± 3%
O=C1C[C@@H](c2nc(-c3ccc(Oc4ccc(C(F)(F)F)cc4)cc3)no2)CN1 [Compound 32] | >128 µg/mL | >128 µg/mL | >128 µg/mL | 
Nc1cc(-c2nc(-c3ccc(Oc4ccc(C(F)(F)F)cc4)cc3)no2)cnc1O [Compound 15] | >128 µg/mL | >128 µg/mL | >128 µg/mL | 
